Test results: patent publication US20260053861A1, “CELL COMPOSITIONS AND METHODS OF USING THE SAME” (THE REGENTS OF THE UNIVERSITY OF CALIFORNIA, priority 2022, published 2026)

Tests used:
[1] = tested on: hPSC-SCs; experiment: Metabolite measurements by biochemical/colorimetric assays (sorbitol, fructose, lactate, glucose, pyruvate); format: cell-based, human
[2] = tested on: hPSC-SCs; experiment: Untargeted primary metabolomics of glucose and BP treated SCs; format: cell-based, human
[3] = Blood glucose levels in STZ-treated mice; conditions: BP in chow
[4] = tested on: hPSC-SCs
[5] = tested on: patients suffering from neuropathic pain; conditions: cited from earlier work
[6] = tested on: NF-kB p65; experiment: NF-kB p65 staining, nuclear localization in SCs exposed to high glucose; format: cell-based, human
[7] = tested on: SOX10+ cells in 2D or 3D NC cultures; experiment: Maintenance of SOX10 expression in cultured NC precursors with signaling modulators; format: cell-based, human; conditions: CHIR99021 exposure together with FGF2, 3D aggregates
Excerpt: Initial hPSC-based NC differentiation protocols relied on the delamination of putative NC cells from neuroepithelial lineages combined with the prospective isolation of p75+ and/or HNK1+ NC precursors (Bajpai et al., 2010; Lee et al., 2007). While those protocols yield various NC-derived lineages, the levels of SOX10 expression are generally low. In contrast, more directed NC induction protocols based on timed exposure to activators of WNT signaling show robust induction of SOX10 in the majority of cells by day 11 of differentiation (Barber et al., 2019; […] et al., 2016; Menendez et al., 2011; Mica et al., 2013; Tchieu et al., 2017). Upon further culture, those hPSC-derived NC cells can be directed into SOX10+ melanocytes (Mica et al., 2013) but also give rise to SOX10-mesenchymal and neuronal precursors ([…] et al., 2016; Lee et al., 2007; Mica et al., 2013; Tchieu et al., 2017). Since SOX10 is a key marker in the SC lineage (Finzsch et al., 2010), we first screened for conditions that maintained its expression in cultured NC precursors. We determined the percentage of SOX10+ cells in 2D or 3D NC cultures in the presence of modulators of EGF, FGF, WNT, Notch, TGFβ, BMP and endothelin 3 signaling.

Molecule	cellular level of fructose increased by high glucose [1]	intracellular glucose and sucrose levels ([1]; SCs, high glucose)	sorbitol accumulation in SCs ([1]; high glucose)	cellular lactate level ([2]; SCs)	levels of TCA cycle metabolites succinate, fumarate, citrate, α-ketoglutarate and malate ([2]; SCs)	cellular pyruvate increased by high glucose ([2]; high glucose)	concentration of citrate reduced by high glucose ([2]; high glucose)	urea concentration and transporter SLC14A2 mRNA level ([2]; high glucose)	blood glucose levels [3]	normalized (transformed) viability z-score, number of viable cells ([4]; 30 mM glucose, compounds at 1 μM, 72 hours, DAPI negative RFP positive cells)	highest non-toxic dose ([4]; human) [µM]	rescue of viability of high glucose treated SC cultures, dose response ([4]; various concentrations, high glucose)	benefit in patients with neuropathic pain [5]	NF-kB p65 localization to the nucleus in SCs exposed to high glucose [6]	SOX10 expression in cultured NC precursors [7]
CC(NC(C)(C)C)C(=O)c1cccc(Cl)c1 (stereo not shown) [BP, Bupropion]	countered this effect	decrease in intracellular glucose and sucrose levels	reduced sorbitol accumulation in SCs in a dose-dependent manner	reduced after BP treatment	increase in the detected levels	lowered by BP treatment	reversed by BP treatment	decreased in the presence of BP	does not affect glucose levels	top hit compound	0.7	dose-dependent effect on rescuing the viability	some benefit	counteracted by BP treatment	–
Cc1c[nH]c(-c2cnc(NCCNc3ccc(C#N)cn3)nc2-c2ccc(Cl)cc2Cl)n1 [CHIR99021, reference compound]	–	–	–	–	–	–	–	–	–	–	–	–	–	–	maintenance of SOX10 expression in 3D aggregates
FGF2	–	–	–	–	–	–	–	–	–	–	–	–	–	–	maintenance of SOX10 expression in 3D aggregates
